Reference: PubChem BioAssay AID1919009 (Molecular Pharmacology Branch, DTP, NCI, 2023)

System: K24384-001-R-PDC complex spheroid growth
Experiment: Anticancer human tumor K24384-001-R-PDC patient-derived pancreatic adenocarcinoma cell line growth inhibition [AhR]
Settings: for IC50: curve of first compound; for viability, T/C: stronger effect = lower value
In short: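 Spheroids combined tumor cells with HUVEC endothelial cells and human MSCs as stroma. AhR antagonists were paired with standard or investigational drugs, each dosed in half-log steps down from near clinical Cmax, or from 10 microM where Cmax was unknown.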

[1] = second compound 0.1 µM, first compound 0.00949 µM
[2] = second compound 0.1 µM, first compound 0.03 µM
[3] = second compound 0.1 µM, first compound 0.0949 µM
[4] = second compound 0.1 µM, first compound 0.3 µM
[5] = second compound 0.316 µM, first compound 0.00949 µM
[6] = second compound 0.316 µM, first compound 0.03 µM
[7] = second compound 0.316 µM, first compound 0.0949 µM
[8] = second compound 0.316 µM, first compound 0.3 µM
[9] = second compound 1 µM, first compound 0.00949 µM
[10] = second compound 1 µM, first compound 0.03 µM
[11] = second compound 1 µM, first compound 0.0949 µM
[12] = second compound 1 µM, first compound 0.3 µM
[13] = second compound 3.16 µM, first compound 0.00949 µM
[14] = second compound 3.16 µM, first compound 0.03 µM
[15] = second compound 3.16 µM, first compound 0.0949 µM
[16] = second compound 3.16 µM, first compound 0.3 µM
[17] = second compound 10 µM, first compound 0.00949 µM
[18] = second compound 10 µM, first compound 0.03 µM
[19] = second compound 10 µM, first compound 0.0949 µM
[20] = second compound 10 µM, first compound 0.3 µM
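Throughout, for viability, T/C: percent of DMSO vehicle-treated spheroid viability set as 100%.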

## COc1ccc([C@@H](O)c2cc(-c3ncnc4cc(N5CCOCC5)ccc34)c(F)cc2Cl)nn1 + CC(CO)NC(=O)c1cc(-c2ccc(Cl)cc2)nn(-c2cnn(C)c2)c1=O
Second compound 0.1 µM
  IC50: 7.26 µM
Second compound 0.316 µM
  IC50: 3.9 µM
Second compound 1 µM
  IC50: 2.83 µM
Second compound 3.16 µM
  IC50: 2.92 µM
Second compound 10 µM
  IC50: 1.48 µM
Second compound 0.1 µM, first compound 0.0316 µM
  viability, T/C: 90.1%
Second compound 0.1 µM, first compound 0.1 µM
  viability, T/C: 82.7%
Second compound 0.1 µM, first compound 0.316 µM
  viability, T/C: 97.6%
Second compound 0.1 µM, first compound 1 µM
  viability, T/C: 75.7%
Second compound 0.1 µM, first compound 3.16 µM
  viability, T/C: 69.2%
Second compound 0.1 µM, first compound 10 µM
  viability, T/C: 43%
Second compound 0.316 µM, first compound 0.0316 µM
  viability, T/C: 103%
Second compound 0.316 µM, first compound 0.1 µM
  viability, T/C: 99.5%
Second compound 0.316 µM, first compound 0.316 µM
  viability, T/C: 85.2%
Second compound 0.316 µM, first compound 1 µM
  viability, T/C: 67.6%
Second compound 0.316 µM, first compound 3.16 µM
  viability, T/C: 55.1%
Second compound 0.316 µM, first compound 10 µM
  viability, T/C: 37%
Second compound 1 µM, first compound 0.0316 µM
  viability, T/C: 86.6%
Second compound 1 µM, first compound 0.1 µM
  viability, T/C: 90%
Second compound 1 µM, first compound 0.316 µM
  viability, T/C: 81.1%
Second compound 1 µM, first compound 1 µM
  viability, T/C: 66.3%
Second compound 1 µM, first compound 3.16 µM
  viability, T/C: 49%
Second compound 1 µM, first compound 10 µM
  viability, T/C: 35.8%
Second compound 3.16 µM, first compound 0.0316 µM
  viability, T/C: 74.5%
Second compound 3.16 µM, first compound 0.1 µM
  viability, T/C: 69.7%
Second compound 3.16 µM, first compound 0.316 µM
  viability, T/C: 80.4%
Second compound 3.16 µM, first compound 1 µM
  viability, T/C: 66%
Second compound 3.16 µM, first compound 3.16 µM
  viability, T/C: 49.2%
Second compound 3.16 µM, first compound 10 µM
  viability, T/C: 33.8%
Second compound 10 µM, first compound 0.0316 µM
  viability, T/C: 71.3%
Second compound 10 µM, first compound 0.1 µM
  viability, T/C: 75.2%
Second compound 10 µM, first compound 0.316 µM
  viability, T/C: 68.2%
Second compound 10 µM, first compound 1 µM
  viability, T/C: 52.1%
Second compound 10 µM, first compound 3.16 µM
  viability, T/C: 42.5%
Second compound 10 µM, first compound 10 µM
  viability, T/C: 28.9%

## Nc1ncn(C2CC(O)C(CO)S2)c(=O)n1 (stereo not given) + CC(CO)NC(=O)c1cc(-c2ccc(Cl)cc2)nn(-c2cnn(C)c2)c1=O
Second compound 0.1 µM
  IC50: > 0.3 µM
Second compound 0.316 µM
  IC50: > 0.3 µM
Second compound 1 µM
  IC50: > 0.3 µM
Second compound 3.16 µM
  IC50: > 0.3 µM
Second compound 10 µM
  IC50: > 0.3 µM
Second compound 0.1 µM, first compound 0.000949 µM
  viability, T/C: 115%
Second compound 0.1 µM, first compound 0.003 µM
  viability, T/C: 126%
[1]
  viability, T/C: 114%
[2]
  viability, T/C: 74.6%
[3]
  viability, T/C: 84.4%
[4]
  viability, T/C: 72.4%
Second compound 0.316 µM, first compound 0.000949 µM
  viability, T/C: 118%
Second compound 0.316 µM, first compound 0.003 µM
  viability, T/C: 130%
[5]
  viability, T/C: 134%
[6]
  viability, T/C: 88.3%
[7]
  viability, T/C: 98.2%
[8]
  viability, T/C: 69.8%
Second compound 1 µM, first compound 0.000949 µM
  viability, T/C: 137%
Second compound 1 µM, first compound 0.003 µM
  viability, T/C: 127%
[9]
  viability, T/C: 148%
[10]
  viability, T/C: 125%
[11]
  viability, T/C: 92.2%
[12]
  viability, T/C: 65.5%
Second compound 3.16 µM, first compound 0.000949 µM
  viability, T/C: 87.3%
Second compound 3.16 µM, first compound 0.003 µM
  viability, T/C: 124%
[13]
  viability, T/C: 119%
[14]
  viability, T/C: 118%
[15]
  viability, T/C: 92.6%
[16]
  viability, T/C: 76.2%
Second compound 10 µM, first compound 0.000949 µM
  viability, T/C: 105%
Second compound 10 µM, first compound 0.003 µM
  viability, T/C: 106%
[17]
  viability, T/C: 136%
[18]
  viability, T/C: 107%
[19]
  viability, T/C: 105%
[20]
  viability, T/C: 83.4%

## O=C(C=Cn1cnc(-c2cc(C(F)(F)F)cc(C(F)(F)F)c2)n1)NNc1cnccn1 + CC(CO)NC(=O)c1cc(-c2ccc(Cl)cc2)nn(-c2cnn(C)c2)c1=O
Second compound 0.1 µM
  IC50: 0.28 µM
Second compound 0.316 µM
  IC50: 0.298 µM
Second compound 1 µM
  IC50: 0.246 µM
Second compound 3.16 µM
  IC50: 0.236 µM
Second compound 10 µM
  IC50: 0.212 µM
[1]
  viability, T/C: 107%
[2]
  viability, T/C: 108%
[3]
  viability, T/C: 80.1%
[4]
  viability, T/C: 48.7%
Second compound 0.1 µM, first compound 0.949 µM
  viability, T/C: 34.1%
Second compound 0.1 µM, first compound 3 µM
  viability, T/C: 28.1%
[5]
  viability, T/C: 102%
[6]
  viability, T/C: 99.3%
[7]
  viability, T/C: 74.8%
[8]
  viability, T/C: 52%
Second compound 0.316 µM, first compound 0.949 µM
  viability, T/C: 30.5%
Second compound 0.316 µM, first compound 3 µM
  viability, T/C: 26.6%
[9]
  viability, T/C: 86.1%
[10]
  viability, T/C: 102%
[11]
  viability, T/C: 72.1%
[12]
  viability, T/C: 46.5%
Second compound 1 µM, first compound 0.949 µM
  viability, T/C: 33.4%
Second compound 1 µM, first compound 3 µM
  viability, T/C: 28.6%
[13]
  viability, T/C: 77.8%
[14]
  viability, T/C: 94.3%
[15]
  viability, T/C: 79.6%
[16]
  viability, T/C: 41.8%
Second compound 3.16 µM, first compound 0.949 µM
  viability, T/C: 29.6%
Second compound 3.16 µM, first compound 3 µM
  viability, T/C: 23.3%
[17]
  viability, T/C: 76.2%
[18]
  viability, T/C: 82.3%
[19]
  viability, T/C: 70.7%
[20]
  viability, T/C: 41%
Second compound 10 µM, first compound 0.949 µM
  viability, T/C: 29.3%
Second compound 10 µM, first compound 3 µM
  viability, T/C: 27.3%
